In patent publication US6800641B2, “Antipsychotic aminomethyl derivatives of 7,8-dihydro-3H-6,9-dioxa-2,3-diaza-cyclopenta[a]naphthalene” (Wyeth, priority 2001, dated 2004):
Counter-ions that a name gives are not always drawn.

Assays:
dopamine D2 receptor = biological target: T1, dopamine D2 receptor (Rattus norvegicus, UniProt P61169); assay: Dopamine D2 receptor affinity, 3H-quinpirole binding in homogenized rat striatal brain tissue
T1 construct: from tissue; host or cells: rat striatal brain tissue homogenate
T1 sequence (P61169 whole entry): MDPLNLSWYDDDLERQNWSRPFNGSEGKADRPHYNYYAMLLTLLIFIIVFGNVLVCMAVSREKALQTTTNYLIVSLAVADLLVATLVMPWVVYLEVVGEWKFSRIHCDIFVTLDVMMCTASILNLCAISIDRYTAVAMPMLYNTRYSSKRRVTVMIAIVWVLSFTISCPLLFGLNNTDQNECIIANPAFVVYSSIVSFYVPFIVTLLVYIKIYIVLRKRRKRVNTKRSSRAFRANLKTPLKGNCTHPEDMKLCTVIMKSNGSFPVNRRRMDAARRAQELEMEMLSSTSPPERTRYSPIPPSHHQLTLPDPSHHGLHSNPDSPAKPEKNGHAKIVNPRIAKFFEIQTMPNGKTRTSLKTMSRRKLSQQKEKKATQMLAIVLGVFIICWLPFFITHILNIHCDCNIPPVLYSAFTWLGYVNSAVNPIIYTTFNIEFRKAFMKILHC
Method: Affinity for the dopamine D2 receptor was established by a modification of the standard experimental test procedure of Seemen and Schaus, European Journal of Pharmacology 203: 105-109, 1991, wherein homogenized rat striatal brain tissue is incubated with ^3H-quinpirole and various concentrations of test compound, filtered and washed and counted in a Betaplate scintillation counter.

IC50 (dopamine D2 receptor) [nM]	melting point [°C]	SMILES
0.1		c1cc2[nH]ncc2c2c1OCC(CNCC13CC4CC(CC(C4)C1)C3)O2 (centres unmarked) [Example 3, Adamantan-1-ylmethyl-(-7,8-dihydro-3H-6,9-dioxa-2,3-diaza-cyclopenta[a]naphthalen-8-ylmethyl)-amine]
	165	Fc1ccc2[nH]cc(CC3CCN(CC4COc5ccc6[nH]ncc6c5O4)CC3)c2c1 (centres unmarked) (as salt: hydrochloride) [Example 7, 8-[4-(5-Fluoro-1H-indol-3-ylmethyl)-piperidin-1-ylmethyl]-7,8-dihydro-3H-6,9-dioxa-2,3-diaza-cyclopenta[a]naphthalene]
	> 300	c1cc2[nH]ncc2c2c1OCC(CNCC13CC4CC(CC(C4)C1)C3)O2 (centres unmarked) (as salt: hydrochloride) [Example 3, Adamantan-1-ylmethyl-(-7,8-dihydro-3H-6,9-dioxa-2,3-diaza-cyclopenta[a]naphthalen-8-ylmethyl)-amine]
3.4		Fc1ccc2[nH]cc(CC3CCN(CC4COc5ccc6[nH]ncc6c5O4)CC3)c2c1 (centres unmarked) [Example 7, 8-[4-(5-Fluoro-1H-indol-3-ylmethyl)-piperidin-1-ylmethyl]-7,8-dihydro-3H-6,9-dioxa-2,3-diaza-cyclopenta[a]naphthalene]
1.1		c1ccc2c(c1)CCN(CC1COc3ccc4[nH]ncc4c3O1)C2 (centres unmarked) [Example 5, 8-(3,4-Dihydro-1H-isoquinolin-2-ylmethyl)-7,8-dihydro-3H-6,9-dioxa-2,3-diaza-cyclopenta[a]naphthalene]
	104	c1ccc(CCCCNC[C@H]2COc3ccc4[nH]ncc4c3O2)cc1 (as salt: hydrochloride) (hydrate or solvate) [Example 2]
	170 to 172	c1ccc2c(c1)CCN(CC1COc3ccc4[nH]ncc4c3O1)C2 (centres unmarked) (as salt: hydrochloride) [Example 5, 8-(3,4-Dihydro-1H-isoquinolin-2-ylmethyl)-7,8-dihydro-3H-6,9-dioxa-2,3-diaza-cyclopenta[a]naphthalene]
0.29		c1ccc(CCCCNC[C@H]2COc3ccc4[nH]ncc4c3O2)cc1 [Example 2]
	194 to 195.7	c1ccc(CNC[C@H]2COc3ccc4[nH]ncc4c3O2)cc1 (as salt: fumarate) (hydrate or solvate) [Example 1]
0.17		c1ccc2c(CCCNCC3COc4ccc5[nH]ncc5c4O3)c[nH]c2c1 (centres unmarked) [Example 4, (7,8-Dihydro-3H-6,9-dioxa-2,3-diaza-cyclopenta[a]naphthalen-8-ylmethyl)-[3-(1H-indol-3-yl)-propyl]-amine]
	138 to 142	c1ccc2c(CCCNCC3COc4ccc5[nH]ncc5c4O3)c[nH]c2c1 (centres unmarked) (as salt: oxalate) [Example 4, (7,8-Dihydro-3H-6,9-dioxa-2,3-diaza-cyclopenta[a]naphthalen-8-ylmethyl)-[3-(1H-indol-3-yl)-propyl]-amine]
0.45		c1ccc(CNC[C@H]2COc3ccc4[nH]ncc4c3O2)cc1 [Example 1]

SMILES	IC50 (dopamine D2 receptor) [nM]	melting point [°C]
C1=C(c2c[nH]c3ccccc23)CCN(CC2COc3ccc4[nH]ncc4c3O2)C1 (centres unmarked) [Example 6, 8-[4-(1H-indol-3-yl)-3,6-dihydro-2H-pyridin-1-ylmethyl]-7,8-dihydro-3H-6,9-dioxa-2,3-diaza-cyclopenta[a]naphthalene]	4.5	
C1=C(c2c[nH]c3ccccc23)CCN(CC2COc3ccc4[nH]ncc4c3O2)C1 (centres unmarked) (as salt: hydrochloride) [Example 6, 8-[4-(1H-indol-3-yl)-3,6-dihydro-2H-pyridin-1-ylmethyl]-7,8-dihydro-3H-6,9-dioxa-2,3-diaza-cyclopenta[a]naphthalene]		190
